Data as given in patent US20240269139A1, “COMPOUNDS FOR TARGETED PROTEIN DEGRADATION OF KINASES” (DANA-FARBER CANCER INSTITUTE, INC., priority 2020, published 2024).
Like-named read-outs stand apart in the source and are kept apart here.

Tests used:
Assay type in all cases: cell-based
[1] = biological target: protein kinases (human kinome) (Homo sapiens, UniProt P11802)
[2] = biological target: T1, protein kinases (human kinome) (Homo sapiens, UniProt O14965)
T1 sequence (O14965 1-403): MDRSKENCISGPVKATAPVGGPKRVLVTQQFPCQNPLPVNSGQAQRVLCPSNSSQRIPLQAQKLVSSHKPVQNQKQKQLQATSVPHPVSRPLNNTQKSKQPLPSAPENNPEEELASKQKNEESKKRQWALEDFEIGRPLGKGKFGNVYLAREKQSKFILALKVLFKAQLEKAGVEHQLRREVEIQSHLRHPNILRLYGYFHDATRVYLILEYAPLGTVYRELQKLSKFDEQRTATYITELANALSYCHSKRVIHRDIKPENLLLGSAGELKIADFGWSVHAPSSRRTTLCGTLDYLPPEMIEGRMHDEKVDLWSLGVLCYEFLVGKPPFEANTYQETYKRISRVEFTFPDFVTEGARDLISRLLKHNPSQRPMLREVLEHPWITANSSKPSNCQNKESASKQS

[3] = biological target: protein kinases (human kinome) (Homo sapiens, UniProt Q00534); conditions: for logFC CDK6: CDK6 (Q00534), direction down; for logFC of CDK6 (Q00534): down
[4] = biological target: T2, protein kinases (human kinome) (Homo sapiens, UniProt O14976)
T2 sequence (O14976 1-1311): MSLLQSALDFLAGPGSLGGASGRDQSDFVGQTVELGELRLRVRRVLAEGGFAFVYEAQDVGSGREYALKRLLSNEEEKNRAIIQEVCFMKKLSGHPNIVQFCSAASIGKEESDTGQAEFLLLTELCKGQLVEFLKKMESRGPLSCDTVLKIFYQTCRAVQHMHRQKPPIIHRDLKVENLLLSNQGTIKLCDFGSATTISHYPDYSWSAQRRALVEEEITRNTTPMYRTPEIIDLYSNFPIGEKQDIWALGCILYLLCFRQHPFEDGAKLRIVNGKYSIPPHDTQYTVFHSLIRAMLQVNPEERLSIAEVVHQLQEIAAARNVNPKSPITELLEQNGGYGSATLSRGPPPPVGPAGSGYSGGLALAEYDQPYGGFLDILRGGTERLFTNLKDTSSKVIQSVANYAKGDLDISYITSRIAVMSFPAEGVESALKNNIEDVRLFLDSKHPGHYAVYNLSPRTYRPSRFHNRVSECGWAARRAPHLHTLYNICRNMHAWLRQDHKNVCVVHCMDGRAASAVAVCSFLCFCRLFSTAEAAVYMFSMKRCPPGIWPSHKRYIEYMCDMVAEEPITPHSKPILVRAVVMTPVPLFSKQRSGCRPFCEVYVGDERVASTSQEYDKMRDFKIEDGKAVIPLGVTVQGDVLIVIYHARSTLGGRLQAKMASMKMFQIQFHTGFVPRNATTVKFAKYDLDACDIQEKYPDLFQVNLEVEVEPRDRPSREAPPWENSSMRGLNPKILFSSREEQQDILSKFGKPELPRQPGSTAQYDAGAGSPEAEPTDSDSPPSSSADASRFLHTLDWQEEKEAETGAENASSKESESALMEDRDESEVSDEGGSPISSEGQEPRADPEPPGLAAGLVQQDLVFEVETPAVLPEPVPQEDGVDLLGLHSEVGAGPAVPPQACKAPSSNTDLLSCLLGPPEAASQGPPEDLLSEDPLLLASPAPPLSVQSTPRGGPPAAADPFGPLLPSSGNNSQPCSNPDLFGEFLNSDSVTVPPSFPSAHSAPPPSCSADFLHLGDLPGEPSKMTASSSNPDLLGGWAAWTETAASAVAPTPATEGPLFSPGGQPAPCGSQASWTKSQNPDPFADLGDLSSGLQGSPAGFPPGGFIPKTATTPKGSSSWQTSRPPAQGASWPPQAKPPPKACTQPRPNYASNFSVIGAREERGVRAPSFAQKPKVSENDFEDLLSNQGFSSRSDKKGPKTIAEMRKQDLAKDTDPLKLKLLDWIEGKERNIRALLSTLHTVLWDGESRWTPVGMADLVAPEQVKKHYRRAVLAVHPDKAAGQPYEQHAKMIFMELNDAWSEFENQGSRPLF

[5] = biological target: protein kinases (human kinome) (Homo sapiens, UniProt P51451); conditions: for logFC BLK: BLK (P51451), direction down; for logFC of BLK (P51451): down
[6] = biological target: protein kinases (human kinome) (Homo sapiens, UniProt P16591); conditions: for logFC of FER (P16591-1): down
[7] = biological target: protein kinases (human kinome) (Homo sapiens, UniProt Q2M2I8); conditions: experiment wp045
Chain of protein kinases (human kinome) (Homo sapiens, UniProt Q2M2I8) (Q2M2I8 whole entry): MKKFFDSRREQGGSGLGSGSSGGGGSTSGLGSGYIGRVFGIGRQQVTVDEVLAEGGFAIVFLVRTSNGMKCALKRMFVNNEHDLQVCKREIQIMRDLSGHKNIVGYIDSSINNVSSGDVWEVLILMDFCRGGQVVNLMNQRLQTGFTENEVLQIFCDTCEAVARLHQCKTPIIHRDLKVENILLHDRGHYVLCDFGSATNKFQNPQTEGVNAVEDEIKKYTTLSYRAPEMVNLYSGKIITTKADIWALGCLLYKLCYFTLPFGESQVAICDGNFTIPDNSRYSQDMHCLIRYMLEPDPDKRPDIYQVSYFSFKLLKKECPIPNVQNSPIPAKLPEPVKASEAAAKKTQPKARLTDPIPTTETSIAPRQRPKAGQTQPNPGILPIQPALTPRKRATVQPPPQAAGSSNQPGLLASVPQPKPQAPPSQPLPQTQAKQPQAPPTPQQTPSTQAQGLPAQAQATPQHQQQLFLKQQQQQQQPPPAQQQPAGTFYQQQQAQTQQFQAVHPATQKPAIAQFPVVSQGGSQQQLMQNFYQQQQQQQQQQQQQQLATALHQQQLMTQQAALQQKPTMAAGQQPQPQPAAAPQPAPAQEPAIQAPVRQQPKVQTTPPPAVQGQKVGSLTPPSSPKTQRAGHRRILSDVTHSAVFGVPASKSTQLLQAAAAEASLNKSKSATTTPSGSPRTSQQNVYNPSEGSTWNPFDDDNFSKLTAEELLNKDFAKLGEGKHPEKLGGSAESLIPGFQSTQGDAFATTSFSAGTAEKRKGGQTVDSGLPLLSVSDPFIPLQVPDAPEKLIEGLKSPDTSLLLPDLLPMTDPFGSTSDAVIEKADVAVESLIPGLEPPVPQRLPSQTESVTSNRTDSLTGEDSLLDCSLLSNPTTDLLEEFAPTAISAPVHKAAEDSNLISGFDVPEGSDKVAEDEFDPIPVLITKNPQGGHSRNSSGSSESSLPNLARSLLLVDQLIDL

Chain of protein kinases (human kinome) (Homo sapiens, UniProt Q00534) (Q00534 whole entry): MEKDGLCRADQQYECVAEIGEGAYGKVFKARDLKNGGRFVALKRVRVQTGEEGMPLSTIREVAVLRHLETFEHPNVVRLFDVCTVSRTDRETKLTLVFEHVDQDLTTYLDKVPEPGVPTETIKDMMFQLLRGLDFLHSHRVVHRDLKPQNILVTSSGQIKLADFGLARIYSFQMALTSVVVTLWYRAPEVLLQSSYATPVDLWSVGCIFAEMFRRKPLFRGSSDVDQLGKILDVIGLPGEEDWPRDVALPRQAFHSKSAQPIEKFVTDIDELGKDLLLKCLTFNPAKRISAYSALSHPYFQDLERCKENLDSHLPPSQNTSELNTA
Chain of protein kinases (human kinome) (Homo sapiens, UniProt P16591) (P16591 whole entry): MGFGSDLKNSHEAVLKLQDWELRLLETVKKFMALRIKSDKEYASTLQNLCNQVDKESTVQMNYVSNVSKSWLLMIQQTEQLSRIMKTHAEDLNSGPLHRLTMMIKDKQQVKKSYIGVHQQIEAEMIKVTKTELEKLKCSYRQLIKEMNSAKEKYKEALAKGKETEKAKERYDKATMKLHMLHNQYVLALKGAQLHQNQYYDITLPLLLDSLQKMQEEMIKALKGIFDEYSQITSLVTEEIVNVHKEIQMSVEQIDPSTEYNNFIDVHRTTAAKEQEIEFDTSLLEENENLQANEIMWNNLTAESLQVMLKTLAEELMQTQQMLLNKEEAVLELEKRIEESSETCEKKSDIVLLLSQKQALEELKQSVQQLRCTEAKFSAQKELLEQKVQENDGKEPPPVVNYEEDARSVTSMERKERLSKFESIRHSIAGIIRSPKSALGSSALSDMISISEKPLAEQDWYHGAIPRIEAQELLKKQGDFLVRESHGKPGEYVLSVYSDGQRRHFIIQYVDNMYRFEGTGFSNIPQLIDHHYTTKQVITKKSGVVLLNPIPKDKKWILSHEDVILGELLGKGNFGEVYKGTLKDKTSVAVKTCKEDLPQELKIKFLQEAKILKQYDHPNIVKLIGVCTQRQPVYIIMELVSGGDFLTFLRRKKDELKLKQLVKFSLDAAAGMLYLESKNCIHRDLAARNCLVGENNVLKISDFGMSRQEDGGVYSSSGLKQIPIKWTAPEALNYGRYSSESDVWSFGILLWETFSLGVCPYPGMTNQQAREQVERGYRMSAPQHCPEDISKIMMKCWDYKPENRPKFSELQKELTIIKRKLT
Chain of protein kinases (human kinome) (Homo sapiens, UniProt P51451) (P51451 whole entry): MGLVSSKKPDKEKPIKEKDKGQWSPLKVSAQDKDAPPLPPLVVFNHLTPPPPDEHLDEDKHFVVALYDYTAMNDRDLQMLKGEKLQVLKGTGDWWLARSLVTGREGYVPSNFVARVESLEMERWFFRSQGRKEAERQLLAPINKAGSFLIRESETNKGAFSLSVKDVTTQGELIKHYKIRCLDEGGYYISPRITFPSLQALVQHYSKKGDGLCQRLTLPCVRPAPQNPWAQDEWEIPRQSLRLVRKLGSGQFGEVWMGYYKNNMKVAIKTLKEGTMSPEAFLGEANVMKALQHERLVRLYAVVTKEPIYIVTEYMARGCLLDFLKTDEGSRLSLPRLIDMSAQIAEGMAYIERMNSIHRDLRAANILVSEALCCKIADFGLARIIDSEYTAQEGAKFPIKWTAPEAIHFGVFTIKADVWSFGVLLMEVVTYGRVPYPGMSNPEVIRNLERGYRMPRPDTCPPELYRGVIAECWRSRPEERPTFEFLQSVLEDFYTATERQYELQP
Chain of protein kinases (human kinome) (Homo sapiens, UniProt P11802) (P11802 whole entry): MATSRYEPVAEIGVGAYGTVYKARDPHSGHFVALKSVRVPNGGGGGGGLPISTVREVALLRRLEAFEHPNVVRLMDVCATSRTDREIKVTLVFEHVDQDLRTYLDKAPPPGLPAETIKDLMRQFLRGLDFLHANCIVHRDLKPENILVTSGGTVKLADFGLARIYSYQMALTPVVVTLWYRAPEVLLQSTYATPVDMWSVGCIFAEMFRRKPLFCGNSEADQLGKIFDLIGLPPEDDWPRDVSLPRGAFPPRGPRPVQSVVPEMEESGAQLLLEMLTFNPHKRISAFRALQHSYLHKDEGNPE

CC(C)(C)c1nc(-c2cccc(NS(=O)(=O)c3c(F)cccc3F)c2F)c(-c2ccnc(NCCOCCNC(=O)CCOCCOCCNc3cccc4c3C(=O)N(C3CCC(=O)NC3=O)C4=O)n2)s1 (stereo not shown) [DD.03.106]
logFC CDK4 (P11802) ([1]; experiment wp047): −0.9277
logFC CDK4 (P11802) ([1]; experiment wp137): −0.8885
logFC CDK4 (P11802) ([1]; experiment wp147, 1 uM): −0.6961
logFC CDK4 (P11802) ([1]; experiment wp147, 2 uM): −0.9835
logFC CDK4 (P11802) ([1]; experiment wp147, 4 uM): −0.726
logFC AURKA (O14965) ([2]; experiment wp147, 4 uM): −0.3302
logFC CDK6 ([3]; experiment wp047): −1.086
logFC CDK6 ([3]; experiment wp137): −1.083
logFC CDK6 ([3]; experiment wp147, 1 uM): −0.8934
logFC CDK6 ([3]; experiment wp147, 2 uM): −1.348
logFC CDK6 ([3]; experiment wp147, 4 uM): −1.159
logFC of CDK6 (Q00534) ([3]; Experiment wp047): −1.086
logFC of CDK6 (Q00534) ([3]; Experiment wp137): −1.083
logFC of CDK6 (Q00534) ([3]; Experiment wp147, 1 uM): −0.8934
logFC of CDK6 (Q00534) ([3]; Experiment wp147, 2 uM): −1.348
logFC of CDK6 (Q00534) ([3]; Experiment wp147, 4 uM): −1.159

Cc1ccc(NC(=O)c2cccc(C(F)(F)F)c2)cc1N1Cc2cnc(Nc3ccc(N4CCN(Cc5cn(CCCCCOc6cccc7c6C(=O)N(C6CCC(=O)NC6=O)C7=O)nn5)CC4)nc3)nc2N(C)C1=O (stereo not shown) [DB0646, N-(3-(7-((6-(4-((1-(5-((2-(2,6-Dioxopiperidin-3-yl)-1,3-dioxoisoindolin-4-yl)oxy)pentyl)-1H-1,2,3-triazol-4-yl)methyl)piperazin-1-v)pyridin-3-yl)amino)-1-methyl-2-oxo-1,4-dihydropyrimido[4,5-d]pyrimidin-3(2H)-yl)-4-methylphenyl)-3-(trifluoromethyl)benzamide]
logFC of GAK (O14976) ([4]; Experiment wp045, down): −0.6424
logFC of GAK (O14976) ([4]; Experiment wp103, down): −0.4684
logFC of GAK (O14976) ([4]; Experiment wp105, down): −0.3367
logFC of GAK (O14976) ([4]; Experiment wp107, down): −0.5564
logFC of GAK (O14976) ([4]; Experiment wp114, down): −0.3391
logFC of GAK (O14976) ([4]; Experiment wp117, down): −0.5868
logFC of GAK (O14976) ([4]; Experiment wp152, down): −0.5117
logFC of GAK (O14976) ([4]; Experiment wp160, 4 hr, down): −0.4714
logFC GAK ([4]; GAK (O14976), direction down, experiment wp045): −0.6424
logFC GAK ([4]; GAK (O14976), direction down, experiment wp103): −0.4684
logFC GAK ([4]; GAK (O14976), direction down, experiment wp105): −0.3367
logFC GAK ([4]; GAK (O14976), direction down, experiment wp107): −0.5564
logFC GAK ([4]; GAK (O14976), direction down, experiment wp114): −0.3391
logFC GAK ([4]; GAK (O14976), direction down, experiment wp117): −0.5868
logFC GAK ([4]; GAK (O14976), direction down, experiment wp152): −0.5117
logFC GAK ([4]; GAK (O14976), direction down, experiment wp160, 4 hr): −0.4714
logFC GAK ([4]; GAK (O14976), direction down, experiment wp160, 8 hr): −0.8149
logFC GAK ([4]; GAK (O14976), experiment wp160, 8 hr, degrader vs DMSO, down): −0.8149
logFC GAK ([4]; GAK (O14976), experiment wp172, down): −0.345
logFC GAK ([4]; GAK, accession O14976, experiment wp172, direction of change down): −0.345
logFC BLK ([5]; experiment wp103): −1.19
logFC BLK ([5]; experiment wp107): −1.259
logFC BLK ([5]; experiment wp117): −1.275
logFC BLK ([5]; experiment wp152): −1.511
logFC BLK ([5]; experiment wp160, 2 hr): −0.5315
logFC BLK ([5]; experiment wp160, 4 hr): −1.092
logFC BLK ([5]; experiment wp160, 8 hr): −1.434
logFC of BLK ([5]; BLK P51451, experiment wp045): −1.314
logFC of BLK (P51451) ([5]; Experiment wp045): −1.314
logFC of BLK (P51451) ([5]; Experiment wp103): −1.19
logFC of BLK (P51451) ([5]; Experiment wp107): −1.259
logFC of BLK (P51451) ([5]; Experiment wp117): −1.275
logFC of BLK (P51451) ([5]; Experiment wp152): −1.511
logFC of BLK (P51451) ([5]; Experiment wp160, 2 hr): −0.5315
logFC of BLK (P51451) ([5]; Experiment wp160, 4 hr): −1.092
logFC of BLK (P51451) ([5]; Experiment wp160, 8 hr): −1.434
logFC of FER (P16591-1) ([6]; Experiment wp045): −1.712
logFC of FER (P16591-1) ([6]; Experiment wp103): −1.628
logFC of FER (P16591-1) ([6]; Experiment wp105): −0.8737
logFC of FER (P16591-1) ([6]; Experiment wp107): −1.722
logFC of FER (P16591-1) ([6]; Experiment wp117): −1.753
logFC of FER (P16591-1) ([6]; Experiment wp160, 2 hr): −0.5384
logFC of FER (P16591-1) ([6]; Experiment wp160, 4 hr): −1.454
logFC of FER (P16591-1) ([6]; Experiment wp160, 8 hr): −1.737
logFC of FER ([6]; FER P16591-1, experiment wp045): −1.712
logFC of FER ([6]; FER P16591-1, experiment wp103): −1.628
logFC of FER ([6]; FER P16591-1, experiment wp105): −0.8737
logFC of FER ([6]; FER P16591-1, experiment wp107): −1.722
logFC of FER ([6]; FER P16591-1, experiment wp117): −1.753
logFC of FER ([6]; FER P16591-1, experiment wp160, 2 hr): −0.5384
logFC of FER ([6]; FER P16591-1, experiment wp160, 4 hr): −1.454
logFC of FER ([6]; FER P16591-1, experiment wp160, 8 hr): −1.737
logFC of FER ([6]; FER P16591, experiment wp152): −1.698
logFC of FER (P16591) ([6]; experiment wp152): −1.698
logFC CDK4 (P11802) ([1]; experiment wp045): −0.9012
logFC CDK4 (P11802) ([1]; experiment wp103): −0.5015
logFC CDK4 (P11802) ([1]; experiment wp107): −0.5565
logFC CDK4 (P11802) ([1]; experiment wp117): −0.6673
logFC CDK4 (P11802) ([1]; experiment wp152): −0.736
logFC CDK4 (P11802) ([1]; experiment wp160, 4 hr): −0.7263
logFC CDK4 (P11802) ([1]; experiment wp160, 8 hr): −1.114
logFC AURKA (O14965) ([2]; experiment wp045): −0.3242
logFC AURKA (O14965) ([2]; experiment wp160, 4 hr): −0.4478

CS(=O)(=O)Nc1cccc(-c2csc3cnc(Nc4ccc(N5CCN(CCOCCOCCOc6cccc7c6C(=O)N(C6CCC(=O)NC6=O)C7=O)CC5)cc4)nc23)c1 (stereo not shown) [RSS0628]
logFC AAK1 ([7]; AAK1 (Q2M218-1), down): −1.24
logFC AAK1 ([7]; AAK1, accession Q2M218-1, direction of change down): −1.24
logFC CDK4 (P11802) ([1]; experiment wp045): −1.422
logFC AURKA (O14965) ([2]; experiment wp045): −1.13
logFC CDK6 ([3]; experiment wp045): −1.743
logFC of CDK6 (Q00534) ([3]; Experiment wp045): −1.743
